Experimental data taken from patent US20040110770A1, “Oxindoles which are inhibitors of CDK-1 and their application in therapeutics” (AVENTIS PHARMA SA, priority 2001, published 2004).
pIC50: −log10 of the molar value. Like-named read-outs stand apart in the source and are kept apart here.

Columns and labels:
[1] = tested on: p34cdc2/cyclin B (CDK1/cyclin B); assay: Inhibition of the p34cdc2/cyclin B activity (32P transfer from ATP to histone H1); format: biochemical, starfish or human recombinant
Experimental: The protein Histone H1 (type III-S) is obtained from Sigma. […] The reaction medium is prepared according to the following composition: 10 μl of enzymatic preparation are added to 5 μl of Histone H1 (5 mg/ml in buffer C) and to 7 μl of buffer C and mixed. 17.5 μl of the mixture are distributed in the tubes immediately before the test. 3 μl of inhibiting agent to be tested are added to each tube. The reaction is begun by the addition of 5 μl of the ATP solution, followed by incubating for 15 minutes at 30° C. The reaction is halted by the addition of 0.5 volumes of Laemli 3× buffer. […] The analysis and the quantification of the phosphorylation of the Histone H1 are carried out using an Instant-Imager device (Packard).

HCT-8 cells = conditions: HCT-8, 48 hours
Experimental: The percentage of mitotic cells and of cells having apoptotic nuclear bodies is determined by examination and counting of a sample of at least 300 cells distributed over several points of the slide using a fluorescent microscope.

HCT-116 = assay: cells; conditions: Homo sapiens, HCT-116, 288 h, read-out: IC50 inhibition of clonogenicity
Experimental: (§1) The Calc18 human tumour line is a gift from Professor G. Riou (Institut Gustave Roussy, Villejuif, France).
(§2) The cells in exponential growth phase are trypsinized, washed in PBS 1× and diluted to a final concentration of 5000 cells/ml in complete medium. The test products (in a volume of 50 μl) are added to 2.5 ml of suspension. […] The mixture is then immediately poured into Petri dishes and left at +4° C. for 5 minutes to solidify the agar.
(§3) The results are expressed as percentage of inhibition of the clonogenicity with respect to controls. The IC50 is determined graphically from the mean results determined for each concentration of compound.

C6 = assay: cells; conditions: Rattus norvegicus, C6, 288 h, read-out: IC50 inhibition of clonogenicity
Experimental: as §1, §2, §3

HT-29 = assay: cells; conditions: Homo sapiens, HT-29, 288 h, read-out: IC50 inhibition of clonogenicity
Experimental: as §1, §2, §3

HLF = assay: cells; conditions: Homo sapiens, 288 h, read-out: IC50 inhibition of clonogenicity
Experimental: as §1, §2, §3

Calc18 = assay: cells; conditions: Homo sapiens, 288 h, read-out: IC50 inhibition of clonogenicity
Experimental: as §1, §2, §3

PC-3 = assay: cells; conditions: Homo sapiens, PC-3, 288 h, read-out: IC50 inhibition of clonogenicity
Experimental: as §1, §2, §3

HLE = assay: cells; conditions: Homo sapiens, 288 h, read-out: IC50 inhibition of clonogenicity
Experimental: as §1, §2, §3

HCT-8 = assay: cells; conditions: Homo sapiens, HCT-8, 288 h, read-out: IC50 inhibition of clonogenicity
Experimental: as §1, §2, §3

Lovo = assay: cells; conditions: Homo sapiens, 288 h, read-out: IC50 inhibition of clonogenicity
Experimental: as §1, §2, §3

PC-14 = assay: cells; conditions: Homo sapiens, PC-14, 288 h, read-out: IC50 inhibition of clonogenicity
Experimental: as §1, §2, §3

HCT-116 cells [2] = assay: cells; conditions: Homo sapiens, HCT-116, 96 h, read-out: HCT-116 IC50 (inhibition of proliferation)
Experimental: The HCT-116 cells are cultured as a layer in a culture flask in Dulbecco's medium comprising L-glutamine 2 mM, penicillin 200 U/ml, streptomycin 2 μg/ml, with the addition of 10% of heat-inactivated foetal calf serum.
The incorporation of the dye in the cell, which reflects cell growth, is evaluated by spectrophotometry at a wavelength of 540 nm for each sample using a Dynatech MR5000 reading device.
For each compound concentration tested, the results are expressed as percentage of inhibition of cell growth and are calculated from the untreated control and from the cell-free (blank) culture medium according to the following formula:
(Value compound−value blank/value cell control−value blank)×100.

HCT-116 cells [3] = conditions: HCT-116, 1 μg/ml
Experimental: The HCT-116 cells are seeded in Nunc 6-well dishes.
The cells are treated with 30 μM BrDU for 30 minutes and then trypsinized. After fixing the cells in 1% paraformaldehyde for 16 hours, the latter are digested in pepsin/hydrochloric acid and then rinsed in PBS 1×. Immunolabelling is carried out with an anti-BrDU primary antibody (Becton Dickinson) and a GAM-FITC secondary antibody (Coulter). The DNA is subsequently labelled with propidium iodide in PBS comprising 1 mg/ml of boiled RNAse. This method makes it possible to count the cells in the G1, S and G2M phases.

## Cc1nc[nH]c1C=C1C(=O)Nc2ccc(C(=O)O)cc21 [Compound 5-11]
[1]; 10 μM
  CDK1 % inhibition at 10 μM: 100%

## Cc1nc[nH]c1C=C1C(=O)Nc2ccc(S(N)(=O)=O)cc21 [Compound 5-12]
[1]; 10 μM
  CDK1 % inhibition at 10 μM: 100%

## O=C1Nc2ccc(Br)cc2C1=Cc1cnc[nH]1 [Compound 5-3]
[1]; 10 μM
  CDK1 % inhibition at 10 μM: 100%

## O=C1Nc2ccc(-c3cccnc3)cc2C1=Cc1cnc[nH]1 [Compound 1, 1,3-dihydro-3-(imidazol-4-ylmethylene)-5-(pyrid-3-yl)-2H-indolin-2-one]
HCT-8 cells; 0.1 μg/ml
  Apoptotic cells (%): 8.5%
  Apoptotic cells Factor/control: 3.5
  Mitotic cells (%): 2.8%
  Mitotic cells Factor/control: 0.4
HCT-8 cells; 1 μg/ml
  Apoptotic cells (%): 16%
  Apoptotic cells Factor/control: 6.6
  Mitotic cells (%): 0.7%
  Mitotic cells Factor/control: 0.1
HCT-8 cells; 10 μg/ml
  Apoptotic cells (%): 42.5%
  Apoptotic cells Factor/control: 17.7
  Mitotic cells (%): 0.4%
  Mitotic cells Factor/control: 0.06
HCT-116
  pIC50: 6.55
C6
  pIC50: 4.97
HT-29
  pIC50: 5.85
HLF
  pIC50: 5.96
Calc18
  pIC50: 5.97
PC-3
  pIC50: 6.72
HLE
  pIC50: 5.92
HCT-8
  pIC50: 5.98
Lovo
  pIC50: 6.05
PC-14
  pIC50: 5.96
HCT-116 cells [2]
  pIC50: 6.55
[1]
  CDK1 % inhibition at 10 μM: 99%
HCT-116 cells [3]; contact time 4 h
  Cells in G1 phase (%): 62.2%
  Cells in G2-M phase (%): 16.4%
  Cells in S phase (%): 20.1%
HCT-116 cells [3]; contact time 24 h
  Cells in G1 phase (%): 26.8%
  Cells in G2-M phase (%): 31.4%
  Cells in S phase (%): 39.5%
HCT-116 cells [3]; contact time 48 h
  Cells in G1 phase (%): 7.9%
  Cells in G2-M phase (%): 58.9%
  Cells in S phase (%): 30.9%
HCT-116 cells [3]; contact time 72 h
  Cells in G1 phase (%): 7.8%
  Cells in S phase (%): 5.1%

## CC(=O)Nc1ccc2c(c1)C(=Cc1c[nH]cn1)C(=O)N2 [Compound 4, 1,3-dihydro-3-(imidazol-4-ylmethylene)-5-(acetylamino)-2H-indolin-2-one]
[1]; 10 μM
  CDK1 % inhibition at 10 μM: 100%

## O=C1Nc2ccc([N+](=O)[O-])cc2C1=Cc1ccc[nH]1 [Compound 5-6]
[1]; 10 μM
  CDK1 % inhibition at 10 μM: 91%

## O=C1Nc2ccc(C(=O)c3cccs3)cc2C1=Cc1cnc[nH]1 [Compound 5-7]
[1]; 10 μM
  CDK1 % inhibition at 10 μM: 100%

## Cc1nc[nH]c1C=C1C(=O)Nc2ccc(-c3cccnc3)cc21 [Compound 5-10]
[1]; 10 μM
  CDK1 % inhibition at 10 μM: 100%

## O=C1Nc2ccc([N+](=O)[O-])cc2C1=Cc1cnc[nH]1 [Compound 5-8]
[1]; 10 μM
  CDK1 % inhibition at 10 μM: 81%

## CNC(=O)c1ccc2c(c1)C(=Cc1c[nH]cn1)C(=O)N2 [Compound 3, 1,3-dihydro-3-(imidazol-4-ylmethylene)-5-(N-methylcarboxamido)-2H-indolin-2-one]
[1]; 10 μM
  CDK1 % inhibition at 10 μM: 100%
